From patent publication US5043166A, “Liposome/anthraquinone drug composition and method” (priority 1989, dated 1991)
Where two headings read alike, the source gives them in different places.

Key:
human cancer patients = details: cited from earlier work
Sabra mice = assay: blood biochemistry after repeated administration; type: in vivo
Protocol: (§1) Sabra mice were divided into groups of 15 mice. Three different doses of either F-DXR or L-DXR were tested: 5, 7.5, and 10 mg/kg body weight. Each dose level was tested on 15 male and 15 female mice. Treatment was administered as a bolus injection through the tail vein on days 0, 14, 28, 42, 56, 70, 84, and 98 of the experiment. The pulsed injection scheme was used for the purpose of achieving high cumulative doses, prolonging the period of exposure of the animals to the drug, and mimicking the way DXR is usually administered in clinical practice. In view of the toxicity observed after single injection (Example XI), DXR was administered at a maximum 10 mg/kg dosage so that the occurrence of acute toxicity would be reduced or nil. In order to avoid the overlapping myelosuppression of successive treatment, 14 days were allowed between successive injections, based on previous observations that full regeneration of the activity of myeloid centers in the spleen after treatment with 10 mg/kg of DXR occurred between 7-12 days after drug administration.
(§2) During the course of the experiment, mice were inspected daily and survival curves were recorded. Whenever possible, dead mice were autopsied and a limited sample of organs sent for histopathological examination. Blood counts and body weights were checked weekly. The blood counts were done in a Coulter analyzer with a 20 μl sample obtained from the retro-orbital blood sinuses. One-third of the mice of each group were sacrificed on day 42, after 3 injections. A second third was sacrificed on day 84, after 6 injections. The remaining mice were sacrificed on day 180, 82 days after the 8the and last injection. Before sacrifice, the mice were bled under light ether anesthesia to obtain serum for the biochemical tests. The animals were then dissected and the removed organs, after weighing, were fixed in Bouin's solution and processed for light microscopy examination with hematoxylin-eosin-phosphomolybdic acid: light green stain.
(§3) d) Effects on Blood Biochemistry Values. Blood levels of glucose, cholesterol, triglycerides, urea, uric acid, creatine, and total protein were measured at 42, 84, and 180 day time points. Blood enzyme levels of alkaline phosphatase, aspartate aminotransferase, and alanine aminotransferase were also assayed at these time points.
(§4) The most important differences in blood chemistry between F-DXR and L-DXR administration occurred in blood glucose, cholesterol, and triglyceride levels. These differences are seen in Table III below, which gives data on female mice receiving 10 mg/kg of either F-DXR or L-DXR. Glucose, cholesterol, and triglyceride levels are expressed as percent control (untreated) animals, and "nm" means "not measured".

[1] = blood biochemistry after repeated administration; type: in vivo, mice; details: mouse, in vivo, iv, female, read-out: % Surviving (Table IX)
Protocol: as §1, §2, §3, §4

[2] = fluorescence of DXR-Fe(III) complex with SUVs (drug modification); type: physicochemical; details: in presence of SUVs with saturated and/or unsaturated phospholipids
Source text: The studies examined the binding of DXR to ferric iron, both in the presence and absence of small unilamellar vesicles (SUVs) formed from the saturated phospholipid dimyristylphosphatidylcholine (DMPC).
One measure of this modification is a change in the 590/560 nm ratio of the fluorescence spectra, which would result from modification of the antracene ring.

Structure (SMILES): COc1cccc2c1C(=O)c1c(O)c3c(c(O)c1C2=O)C[C@@](O)(C(=O)CO)C[C@@H]3O[C@H]1C[C@H](N)[C@H](O)[C@H](C)O1 [DXR, doxorubicin]
- previous treatment outcome (human cancer patients; patient 5, hepatoma): Previous failure
- previous treatment outcome (human cancer patients; patient 8, hepatoma): failure
- blood cholesterol (Sabra mice; 10 mg/kg): hypercholesterolemia
- blood glucose (Sabra mice; 10 mg/kg): decreased blood glucose
- blood triglyceride (Sabra mice; 10 mg/kg): hyperglyceridemia
- creatine levels (Sabra mice; 7.5 and 5 mg/kg, 180 days): increased creatine levels
- alanine aminotransferase (Sabra mice; 180 days): a drop in alanine aminotransferase
- Cholesterol, percent control (untreated) (Sabra mice; female, day 42, 10 mg/kg): 300 percent control
- Glucose, percent control (untreated) (Sabra mice; female, day 42, 10 mg/kg): 97 percent control
- Cholesterol, percent control (untreated) (Sabra mice; female, day 84, 10 mg/kg): 383 percent control
- Glucose, percent control (untreated) (Sabra mice; female, day 84, 10 mg/kg): 57 percent control
- Triglyceride, percent control (untreated) (Sabra mice; female, day 84, 10 mg/kg): 416 percent control
- liver enzymes (alkaline phosphatase and aminotransferases) (Sabra mice; mouse, in vivo): Increased liver enzymes
- survival at 1008 h ([1]; day 42, 10 mg/kg): 93%
- survival at 2016 h ([1]; day 84, 10 mg/kg): 27%
- chemical modification with ferric iron [2]: relatively rapid and irreversible chemical modification
